Measurements as given in ChEMBL document CHEMBL5214999, “Identification and Optimization of a Ligand-Efficient Benzoazepinone Bromodomain and Extra Terminal (BET) Family Acetyl-Lysine Mimetic into the Oral Candidate Quality Molecule I-BET432” (J Med Chem, 2022).
Converted amounts (≈) assume the structure as drawn.

Columns and labels:
[1] = target: T1, Bromodomain-containing protein 4 (Homo sapiens, UniProt O60885); assay: Inhibition of BRD4 BD2 (unknown origin) measured by TR-FRET assay
[2] = target: T1, Bromodomain-containing protein 4; assay: Inhibition of BRD4 BD1 (unknown origin) measured by TR-FRET assay
C-C motif chemokine 2 = C-C motif chemokine 2 (Homo sapiens, UniProt P13500); assay: Inhibition of MCP-1 in LPS-stimulated human whole blood incubate for 24 hrs by immuno assay; assay type: tissue-based
[3] = Lipophilicity, logD of compound at pH 7.4 by Chromatography; assay type: physicochemical; details: buffer
[4] = Solubility of the compound in saline by CLND method; assay type: physicochemical
[5] = Artificial membrane permeability of the compound; assay type: ADME; details: PAMPA; read-out: permeability
[6] = Intrinsic clearance in rat hepatocytes after 60 mins by LC-MS/MS analysis; assay type: ADME, cell-based, Hepatocyte; details: 1 h
[7] = Intrinsic clearance in human hepatocytes measured after 120 mins by LC-MS/MS analysis; assay type: ADME, cell-based, Hepatocyte; details: 2 h
[8] = Intrinsic clearance in dog hepatocytes incubated upto 45 mins by LC-MS/MS analysis; assay type: ADME, cell-based, Canis lupus familiaris, Hepatocyte; details: 0.75 h

Sequence of C-C motif chemokine 2 (P13500 whole entry): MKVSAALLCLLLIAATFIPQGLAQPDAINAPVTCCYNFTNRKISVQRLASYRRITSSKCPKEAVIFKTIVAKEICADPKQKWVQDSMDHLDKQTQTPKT

Structure (SMILES)	IC50 [1] [nM]	IC50 [2] [nM]	IC50 (C-C motif chemokine 2) [nM]	chromatographic logD [3]	solubility kinetic [4] [µg/mL]	Papp [5] [×10⁻⁶ cm/s]	CLH [6] [mL/min/g]	CLH [7] [mL/min/g]	CLH [8] [mL/min/g]
CC(=O)N1CCCc2ccccc21	126000	251000							
Cc1noc(C)c1-c1ccccc1	158000	50100							
COC[C@@H](C)n1c(C2CCOCC2)nc2cnc3cc(-c4c(C)noc4C)c(OC)cc3c21	126	39.8							
CCS(=O)(=O)c1ccc2c(c1)C(C(N)=O)=CN(C)C(=O)[C@@H]2C	3160	1580	2000	1.1	82 (≈ 254 µM)	1			
CCOc1ccc2c(c1)C(c1cn[nH]c1)=CN(C)C(=O)[C@@H]2C	3.98	6.31	25.1	3.4	≥ 115	37			
CCOc1ccc2c(c1)C(c1cn(C)cn1)=CN(C)C(=O)[C@@H]2C	25.1	31.6	50.1	3.6	117 (≈ 376 µM)	69			
CCS(=O)(=O)c1ccc2c(c1)C(c1cnn(C)c1)=CN(C)C(=O)[C@@H]2C	79.4	39.8	39.8	2.8	≥ 222	14.5	2.44	< 0.45	< 0.65
COCCOc1ccc2c(c1)C=CN(C)C(=O)[C@@H]2C	794	316	1000	4	≥ 128	84			
CCS(=O)(=O)c1ccc2c(c1)C(C)=CN(C)C(=O)[C@@H]2C	251	79.4	158	3.4	≥ 131	15	1.18	< 0.45	0.77
C[C@H]1C(=O)N(C)C=Cc2cc(CCO)ccc21	1580	398	1000	2.6	≥ 108	24			
COc1cc2c(cc1OC)[C@H](C)C(=O)N(C)C=C2	50100	12600		3.4					
COc1cc2c(cc1OC)[C@@H](C)C(=O)N(C)CC2	15800	3980		2.6					
COc1cc2c(cc1OC)CC(=O)N(C)C=C2	10000	2000		2.6					
COc1ccc2c(c1)C=CN(C)C(=O)[C@@H]2C	1580	631		4.3		88			
Cc1nnc(C)n1-c1ccccc1	> 50100	> 50100							
Cc1nc(C2=CN(C)C(=O)[C@H](C)c3ccc(OCCO)cc32)c[nH]1	31.6	20	39.8	1.5	≥ 185	< 0.3			
C[C@H]1C(=O)N(C)C=Cc2cc(C(O)CO)ccc21 (some centres not stated)	2000	398	1000	1.1	≥ 101	2.7			
C[C@H]1C(=O)N(C)C=C(c2cnn(C)c2)c2cc(C(CO)CO)ccc21	100	31.6	31.6	1.4	≥ 208	< 0.3			

Structure (SMILES)	IC50 [1] [nM]	IC50 [2] [nM]	IC50 (C-C motif chemokine 2) [nM]	chromatographic logD [3]	solubility kinetic [4] [µg/mL]	Papp [5] [×10⁻⁶ cm/s]	CLH [6] [mL/min/g]	CLH [7] [mL/min/g]	CLH [8] [mL/min/g]
C[C@H]1C(=O)N(C)C=Cc2cc(CN3CCOCC3)ccc21	631	158	398	3.3	≥ 142	77.5	23.76	< 0.45	3.37
C[C@H]1C(=O)N(C)C=Cc2cc(C(CO)CO)ccc21	2000	398	631	1.2	≥ 209	3			
COc1cc2c(cc1OC)[C@H](C)C(=O)N(C)CC2	158000	63100		2.5					
CCc1ccc2c(c1)C=CN(C)C(=O)[C@@H]2C	631	200		5.9		73			
CCOc1ccc2c(c1)C(c1c[nH]c(C)n1)=CN(C)C(=O)[C@@H]2C	20	12.6	15.8	3.1	≥ 135	40			
C[C@H]1C(=O)N(C)C=Cc2cc(OC(CO)CO)ccc21	1260	398	631	1.3	≥ 142	4.2			
Cc1cc(-c2ccccc2)cn(C)c1=O	10000	3160							
C[C@H]1C(=O)N(C)C=Cc2cc(CC3CCOCC3)ccc21	316	63.1	631	5.4	≥ 111	71			
C[C@H]1C(=O)N(C)C=Cc2cc(CN3CCCC3)ccc21	7940	501	1580	1.5	≥ 97	36			
CCOc1ccc2c(c1)C(c1c[nH]cn1)=CN(C)C(=O)[C@@H]2C	10	10	50.1	2.7	≥ 131	46			
CCOc1ccc2c(c1)C(n1ccnc1)=CN(C)C(=O)C2C (racemic)	25100	39800		4.3	≥ 65	58			
CCOc1ccc2c(c1)C=CN(C)C(=O)C2C (racemic)	1000	501	3160	5	≥ 120	70			
CCOc1ccc2c(c1)C(c1cc[nH]n1)=CN(C)C(=O)C2C (racemic)	20	31.6	126	3.8	≥ 99	54			
CCS(=O)(=O)c1ccc2c(c1)C=CN(C)C(=O)[C@@H]2C (racemic)	1260	200	398	3.1		42			
CCS(=O)(=O)c1ccc2c(c1)C(c1ccccc1)=CN(C)C(=O)C2C (racemic)	501	251	1580	5.1	≥ 146	100			
CC1C(=O)N(C)C=Cc2cc(OCC(C)(C)O)ccc21 (racemic)	794	251	631	3.6	≥ 131	74			
CCS(=O)(=O)c1ccc2c(c1)C(c1ccncc1)=CN(C)C(=O)C2C (racemic)	1580	631	1260	2.8	128 (≈ 359 µM)	35			
C[C@H]1C(=O)N(C)C=Cc2ccccc21 (racemic)	5010	1580	5010	4.3	≥ 86	100			
